These results are taken from ChEMBL document CHEMBL5365461, “Degradation of Cyclin-Dependent Kinase 9/Cyclin T1 by Optimized Microtubule-Associated Protein 1 Light Chain 3 Beta-Recruiting Coumarin Analogs” (J Med Chem, 2023).

SMILES strings stand for the structures. The source made the active and inactive calls. No cut-off for these calls is given here.

Assay [1] relates to U2932. Briefly: Cytotoxicity against human U2932 cells assessed as inhibition of cell growth measured after 72 hrs by CCK-8 assay. The assay is classed as functional, cell-based. As to conditions: U2932, 72 h. On the technique in general: Tetrazolium dyes change colour on reduction, which living cells bring about.
In assay [2] the target is Cyclin-dependent kinase 9 (Homo sapiens) (UniProt P50750). In words: Inhibition of GST-fused human full-length CDK9 (1 to 372(end) residues)/N-terminal GST-fused His-tagged human full-length CyclinT1 (1 to 726(end) residues) expressed in baculovirus expression system at 100 nM using CDK7/9 tide as substrate incubated for 120 mins in presence of ATP by ADP-Glo Kinase assay relative to control.

For assay [3] the target is unchanged. In words: Inhibition of GST-fused human full-length CDK9 (1 to 372(end) residues)/N-terminal GST-fused His-tagged human full-length CyclinT1 (1 to 726(end) residues) expressed in baculovirus expression system at 10 nM using CDK7/9 tide as substrate incubated for 120 mins in presence of ATP by ADP-Glo Kinase assay relative to control. On the technique in general: ADP-Glo first removes unused ATP, then detects ADP through luciferase.

Assay [4] addresses CDK9/cyclin T1 (Homo sapiens) (UniProt O60563+P50750). Briefly: Induction of CDK9/CyclinT1 degradation in human U2932 cells at 100 nM measured after 24 hrs by immunoblotting analysis. In kind it is cell-based. A general note: Immunoblotting shows a protein as a band on a membrane.
For assay [5], the system named is U2932. In words: Induction of apoptosis in human U2932 cells assessed as late apoptotic cells at 1000 nM incubated for 24 hrs by AnnexinV-FITC/PI staining based flow cytometry analysis (reference value: 5.95%). In kind it is functional.
The subject of assay [6] is U2932. In words: Induction of apoptosis in human U2932 cells assessed as viable cells at 1000 nM incubated for 24 hrs by AnnexinV-FITC/PI staining based flow cytometry analysis (reference value: 86.9%). As to conditions: read-out: Activity. In kind it is functional.
Assay [7] has as its system U2932. Briefly: Induction of apoptosis in human U2932 cells assessed as early apoptotic cells at 1000 nM incubated for 24 hrs by AnnexinV-FITC/PI staining based flow cytometry analysis (reference value: 6.20%). The assay is classed as functional.
Assay [8] deals with U2932. In words: Induction of apoptosis in human U2932 cells assessed as necrotic cells at 1000 nM incubated for 24 hrs by AnnexinV-FITC/PI staining based flow cytometry analysis (reference value: 0.92%). The assay is classed as functional.

Sequence of Cyclin-dependent kinase 9 (Homo sapiens) (P50750 whole entry, the tested form may be a part): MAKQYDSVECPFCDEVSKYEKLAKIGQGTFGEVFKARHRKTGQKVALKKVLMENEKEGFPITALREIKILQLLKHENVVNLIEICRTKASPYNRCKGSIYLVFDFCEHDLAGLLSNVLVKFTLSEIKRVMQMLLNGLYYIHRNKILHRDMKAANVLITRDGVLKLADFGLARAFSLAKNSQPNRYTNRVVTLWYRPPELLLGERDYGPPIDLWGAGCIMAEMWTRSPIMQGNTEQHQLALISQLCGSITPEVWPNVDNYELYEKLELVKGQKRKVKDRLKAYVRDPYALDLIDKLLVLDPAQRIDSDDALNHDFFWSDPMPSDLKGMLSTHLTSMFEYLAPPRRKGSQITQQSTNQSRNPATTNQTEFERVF

With `CC(C)(C)c1cnc(CSc2cnc(NC(=O)C3CCN(CCCOc4cc(O)cc5oc(=O)cc(-c6ccc(F)cc6)c45)CC3)s2)o1`, the IC50 in the assay on U2932 [1] turned out to be 0.346 µM. Besides, the inhibition in assay [2] amounted to 68%.
As for `Cc1cc(=O)oc2cc(OCCOCCN3CCC(C(=O)Nc4ncc(SCc5ncc(C(C)(C)C)o5)s4)CC3)cc(O)c12`, the IC50 in the assay on U2932 [1] worked out at 0.145 µM. For the same compound, the inhibition in assay [2] turned out to be 71%; in assay [3] it was 28%.
`Cc1cc(=O)oc2cc(O)cc(OCCCCN3CCC(C(=O)Nc4ncc(SCc5ncc(C(C)(C)C)o5)s4)CC3)c12`: in the assay with U2932 [1], the IC50 worked out at 0.142 µM. For the same compound, the values for the inhibition in assay [2] and in assay [3] were 79% and 9%, respectively.
`CC(C)(C)c1cnc(CSc2cnc(NC(=O)C3CCN(CCCOc4cc(O)c5c(-c6ccc(F)cc6)cc(=O)oc5c4)CC3)s2)o1`: the IC50 in the assay on U2932 [1] was determined as 0.124 µM. For the same compound, the outcome in assay [4] was Active. Moreover, the inhibition in assay [2] worked out at 80%.
On to `CC(C)(C)c1cnc(CSc2cnc(NC(=O)C3CCN(CCCOc4cc(O)c5ccc(=O)oc5c4)CC3)s2)o1`, for which, in the assay with U2932 [1], the 50% inhibitory concentration (IC50) turned out to be 0.157 µM. In addition, the outcome in assay [4] was Active. The results for the inhibition in assay [2] and in assay [3] were 78% and 45%, respectively.
As to `CC(C)(C)c1cnc(CSc2cnc(NC(=O)C3CCN(CCCOc4cc(O)cc5oc(=O)cc(-c6ccccc6)c45)CC3)s2)o1`, in the assay on U2932 [1], the IC50 was determined as 0.624 µM. Also, the inhibition in assay [2] is 51%; in assay [3] it was -8%.
As to `Cc1cc(=O)oc2cc(OCCN3CCC(C(=O)Nc4ncc(SCc5ncc(C(C)(C)C)o5)s4)CC3)cc(O)c12`, the IC50 in the assay on U2932 [1] was 0.155 µM. Further, the figures for the inhibition in assay [2] and in assay [3] were 69% and 37%, respectively.
Consider `Cc1cc(=O)oc2cc(O)cc(OCCN3CCC(C(=O)Nc4ncc(SCc5ncc(C(C)(C)C)o5)s4)CC3)c12`, for which, in the assay with U2932 [1], the IC50 was 0.424 µM. Besides, the inhibition in assay [2] was found to be 73%; in assay [3], 23%.
Take `Cc1cc(=O)oc2cc(O)cc(OCCOCCN3CCC(C(=O)Nc4ncc(SCc5ncc(C(C)(C)C)o5)s4)CC3)c12`: in the assay on U2932 [1], the IC50 came out at 0.18 µM. The inhibition in assay [2] was found to be 63%; in assay [3], 5%.
Take `CC(C)(C)c1cnc(CSc2cnc(NC(=O)C3CCN(CCCOc4cc(O)cc5oc(=O)cc(-c6ccncc6)c45)CC3)s2)o1`: in the assay with U2932 [1], the IC50 amounted to 0.484 µM. The inhibition in assay [2] turned out to be 55%.
On to `CC(C)(C)c1cnc(CSc2cnc(NC(=O)C3CCN(CCCOc4ccc5c(-c6ccccc6)cc(=O)oc5c4)CC3)s2)o1`, for which the IC50 with U2932 [1] was 0.32 µM. In addition, the inhibition in assay [2] was 69%; in assay [3], 6%.
The like results for `Cc1cc(=O)oc2cc(OCCCCCN3CCC(C(=O)Nc4ncc(SCc5ncc(C(C)(C)C)o5)s4)CC3)cc(O)c12` were, in that order, 0.098 µM, 57% and 2%.
On to `Cc1cc(=O)oc2cc(OCCCCN3CCC(C(=O)Nc4ncc(SCc5ncc(C(C)(C)C)o5)s4)CC3)cc(O)c12`, for which, in the assay on U2932 [1], the IC50 was found to be 0.133 µM. For the same compound, the inhibition in assay [2] worked out at 73%; in assay [3] it was 26%.
Consider `COc1ccc(-c2cc(=O)oc3cc(OCCCN4CCC(C(=O)Nc5ncc(SCc6ncc(C(C)(C)C)o6)s5)CC4)cc(O)c23)cc1`, for which the half-maximal inhibitory concentration (IC50) with U2932 [1] stood at 0.104 µM. In assay [4], the outcome was Active. Also, the inhibition is 83% in assay [2] and 33% in assay [3].
Take `CC(C)(C)c1cnc(CSc2cnc(NC(=O)C3CCN(CCCCCOc4cc(O)cc5oc(=O)ccc45)CC3)s2)o1`: the IC50 in the assay on U2932 [1] is 0.109 µM. Also, the inhibition in assay [2] is 83%; in assay [3], 24%.
For the compound `Cc1cc(=O)oc2cc(O)cc(OCCCN3CCC(C(=O)Nc4ncc(SCc5ncc(C(C)(C)C)o5)s4)CC3)c12`, the IC50 in the assay with U2932 [1] was found to be 0.157 µM. Further, in assay [4], the result was Active. Also, the inhibition in assay [2] was determined as 55%.
For the compound `CC(C)(C)c1cnc(CSc2cnc(NC(=O)C3CCN(CCCOc4cc(O)c5c(-c6ccncc6)cc(=O)oc5c4)CC3)s2)o1`, the IC50 in the assay with U2932 [1] was 0.192 µM. The outcome in assay [4] was Active. The values for the inhibition in assay [2] and in assay [3] were 69% and 15%, respectively.
Consider `CC(C)(C)c1cnc(CSc2cnc(NC(=O)C3CCN(CCCOc4cc(O)cc5oc(=O)ccc45)CC3)s2)o1`, for which the IC50 with U2932 [1] turned out to be 0.125 µM. In addition, in assay [4], the result was Active. Further, the inhibition in assay [2] is 52%; in assay [3] it was -3%.
`CC(C)(C)c1cnc(CSc2cnc(NC(=O)C3CCN(CCCOc4cccc5oc(=O)cc(-c6ccccc6)c45)CC3)s2)o1`: the IC50 in the assay on U2932 [1] stood at 0.534 µM. Besides, the inhibition in assay [2] was 36%; in assay [3], -8%.
`CC(C)(C)c1cnc(CSc2cnc(NC(=O)C3CCN(CCCOc4cc(O)c5c(-c6ccccc6)cc(=O)oc5c4)CC3)s2)o1`: the IC50 in the assay with U2932 [1] amounted to 0.12 µM. Also, the result in assay [4] was Active. Also, the inhibition is 86% in assay [2] and -4% in assay [3].
For `CC(C)(C)c1cnc(CSc2cnc(NC(=O)C3CCN(CC(=O)NCCOCCOCCOCCNc4cccc5c4C(=O)N(C4CCC(=O)NC4=O)C5=O)CC3)s2)o1` (centres undefined), in the assay with U2932 [1], the IC50 is 0.306 µM. Further, the Activity turned out to be 22.3% in the assay with U2932 [5], 8.93% in the assay with U2932 [7] and 1.55% in the assay with U2932 [8]. Further, in assay [4], the outcome was Active. The results for the inhibition in assay [2] and in assay [3] were 39% and 4%, respectively. The viability at 1 µM in the assay on U2932 [6] came out at 67.2%.
Regarding `COc1ccc(-c2cc(=O)oc3cc(O)cc(OCCCN4CCC(C(=O)Nc5ncc(SCc6ncc(C(C)(C)C)o6)s5)CC4)c23)cc1`, in the assay on U2932 [1], the IC50 stood at 0.604 µM. Also, the inhibition is 61% in assay [2] and -5% in assay [3].

One may read the IC50 as the point on the concentration scale where inhibition reaches its midpoint. A word on the inhibition: it is the relative decrease from the control value, in per cent.
